# According to paper PMC9203742 (Nature Communications, 2022):
# Where “and” joins values, the source holds several entries; their conditions need not be identical. Equal entries are not always repeated.
# Key:
# [1] = molecular target: T1, WT mGlu1 (Rattus norvegicus, UniProt P23385); format: cell-based; also: test concentration or dose not given here
# T1 construct: expressed in transfected cells; host or cells: HEK293
# [2] = molecular target: T2, mGlu1 P58H/N264H mutant (Rattus norvegicus, UniProt P23385, N264H/P58H); assay: Fura-2 Ca2+ imaging in HEK293 cells expressing mGlu1 P58H/N264H; format: cell-based
# T2 construct: expressed in transfected cells; host or cells: HEK293
# [3] = molecular target: T3, mGlu1 A59H/N264H mutant (Rattus norvegicus, UniProt P23385, A59H/N264H); assay: Fura-2 Ca2+ imaging in HEK293 cells expressing mGlu1 A59H/N264H; format: cell-based
# T3 construct: expressed in transfected cells; host or cells: HEK293
# [4] = molecular target: T4, mGlu1 K61H/N264H mutant (Rattus norvegicus, UniProt P23385, K61H/N264H); assay: Fura-2 Ca2+ imaging in HEK293 cells expressing mGlu1 K61H/N264H; format: cell-based
# T4 construct: expressed in transfected cells; host or cells: HEK293
# [5] = molecular target: T5, mGlu1 P57H/N264H mutant (Rattus norvegicus, UniProt P23385, N264H/P57H); assay: Fura-2 Ca2+ imaging in HEK293 cells expressing mGlu1 P57H/N264H; format: cell-based
# T5 construct: expressed in transfected cells; host or cells: HEK293
# [6] = molecular target: T6, mGlu1 E60H/N264H mutant (Rattus norvegicus, UniProt P23385, E60H/N264H); assay: Fura-2 Ca2+ imaging in HEK293 cells expressing mGlu1 E60H/N264H; format: cell-based
# T6 construct: expressed in transfected cells; host or cells: HEK293
# [7] = test system: HEK293 cells, vector control; assay: Fura-2 Ca2+ imaging in HEK293 cells transfected with control vector (Vec); format: cell-based; details: single-cell values #1-#20; as to Ca2+ response of individual cells (source data Suppl Fig1), Vec: test concentration or dose not given here
# [8] = test system: mGlu1 construct not given; assay: Fura-2 Ca2+ imaging in HEK293 cells, source data Suppl Fig1, left group (c0-c8); construct not given; format: cell-based, rat; details: single-cell values, cells #15-#20; left group of third block
# Text: (§1) Supplement 41467_2022_30828_MOESM6_ESM.zip/Ojima et al_source data_Suppl Fig.xlsx, sheet "Suppl Fig1" | column: Glu; NiCl2; CuCl2; ZnCl2; CdCl2; Na2PdCl2; Pd(bpy)
# [9] = test system: HEK293 cells, vector control; assay: Fura-2 Ca2+ imaging in HEK293 cells transfected with control vector (Vec); format: cell-based; details: Fig.1e; as to Ca2+ response of individual cells (source data Suppl Fig1), Vec: test concentration or dose not given here
# Text: Supplement 41467_2022_30828_MOESM6_ESM.zip/Ojima et al_source data_Main Figure.xlsx, sheet "Fig.1e" | column: Vec
# [10] = molecular target: T7, mGlu1 A59H/A265H mutant (Rattus norvegicus, UniProt P23385, A265H/A59H); assay: Fura-2 Ca2+ imaging in HEK293 cells expressing mGlu1 A59H/A265H; format: cell-based; details: single-cell values
# T7 construct: expressed in transfected cells; host or cells: HEK293
# [11] = test system: mGlu1 construct not given; assay: Fura-2 Ca2+ imaging in HEK293 cells, source data Suppl Fig1, middle group (c9-c17); construct not given; format: cell-based, rat; details: single-cell values, cells #15-#20; middle group of third block
# Text: as §1
# [12] = molecular target: T7, mGlu1 A59H/A265H mutant; assay: Fura-2 Ca2+ imaging in HEK293 cells expressing mGlu1 A59H/A265H; format: cell-based; details: Fig.1e
# [13] = molecular target: T8, mGlu1 A59H/G266H mutant (Rattus norvegicus, UniProt P23385, A59H/G266H); assay: Fura-2 Ca2+ imaging in HEK293 cells expressing mGlu1 A59H/G266H; format: cell-based; details: single-cell values; as to Ca2+ response (delta ratio), A59H/G266H: test concentration or dose not given here
# T8 construct: expressed in transfected cells; host or cells: HEK293
# [14] = test system: mGlu1 construct not given; assay: Fura-2 Ca2+ imaging in HEK293 cells, source data Suppl Fig1, right group (c18-c26); construct not given; format: cell-based, rat; details: single-cell values, cells #15-#20; right group of third block
# Text: as §1
# [15] = molecular target: T8, mGlu1 A59H/G266H mutant; assay: Fura-2 Ca2+ imaging in HEK293 cells expressing mGlu1 A59H/G266H; format: cell-based; details: Fig.1e
# T3 sequence (P23385 19-1199 A59H/N264H): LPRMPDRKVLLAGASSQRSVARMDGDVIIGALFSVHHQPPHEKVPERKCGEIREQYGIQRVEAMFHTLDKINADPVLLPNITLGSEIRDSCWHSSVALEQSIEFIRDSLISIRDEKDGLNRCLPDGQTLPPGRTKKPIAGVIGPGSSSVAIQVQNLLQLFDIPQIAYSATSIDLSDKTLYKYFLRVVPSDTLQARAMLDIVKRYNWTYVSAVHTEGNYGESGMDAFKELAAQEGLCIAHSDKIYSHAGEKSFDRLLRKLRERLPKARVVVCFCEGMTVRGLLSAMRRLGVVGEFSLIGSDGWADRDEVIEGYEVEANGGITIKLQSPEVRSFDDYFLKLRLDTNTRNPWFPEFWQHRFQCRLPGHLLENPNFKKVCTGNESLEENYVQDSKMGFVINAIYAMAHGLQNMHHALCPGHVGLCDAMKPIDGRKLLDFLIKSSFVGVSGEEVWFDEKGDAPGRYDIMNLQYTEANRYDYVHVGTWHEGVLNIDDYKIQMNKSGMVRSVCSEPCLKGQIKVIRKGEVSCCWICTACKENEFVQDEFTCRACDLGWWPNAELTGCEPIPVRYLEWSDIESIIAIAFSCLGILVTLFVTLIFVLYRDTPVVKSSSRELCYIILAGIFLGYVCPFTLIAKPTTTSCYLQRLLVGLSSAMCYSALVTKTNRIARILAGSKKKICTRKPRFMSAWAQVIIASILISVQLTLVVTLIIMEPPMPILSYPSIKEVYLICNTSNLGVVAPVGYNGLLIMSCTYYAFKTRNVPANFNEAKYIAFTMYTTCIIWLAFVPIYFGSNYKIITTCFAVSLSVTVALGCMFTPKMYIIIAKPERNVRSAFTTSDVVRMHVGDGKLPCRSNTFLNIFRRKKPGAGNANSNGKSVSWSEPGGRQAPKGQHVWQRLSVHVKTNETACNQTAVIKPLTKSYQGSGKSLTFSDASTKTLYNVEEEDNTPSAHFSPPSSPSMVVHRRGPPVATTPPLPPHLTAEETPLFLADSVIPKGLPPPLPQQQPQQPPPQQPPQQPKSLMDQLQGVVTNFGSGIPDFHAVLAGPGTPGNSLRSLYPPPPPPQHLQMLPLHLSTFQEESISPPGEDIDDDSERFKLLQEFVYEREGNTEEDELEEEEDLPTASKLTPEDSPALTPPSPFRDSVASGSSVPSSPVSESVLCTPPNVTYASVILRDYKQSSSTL
# T5 sequence (P23385 19-1199 P57H/N264H): as the sequence (P23385 19-1199 A59H/N264H) above, with P39H, H41A counted along it
# T1 sequence (P23385 19-1199): as the sequence (P23385 19-1199 A59H/N264H) above, with H41A, H246N counted along it
# T8 sequence (P23385 19-1199 A59H/G266H): as the sequence (P23385 19-1199 A59H/N264H) above, with H246N, G248H counted along it
# T2 sequence (P23385 19-1199 P58H/N264H): as the sequence (P23385 19-1199 A59H/N264H) above, with P40H, H41A counted along it
# T6 sequence (P23385 19-1199 E60H/N264H): as the sequence (P23385 19-1199 A59H/N264H) above, with H41A, E42H counted along it
# T4 sequence (P23385 19-1199 K61H/N264H): as the sequence (P23385 19-1199 A59H/N264H) above, with H41A, K43H counted along it
# T7 sequence (P23385 19-1199 A59H/A265H): as the sequence (P23385 19-1199 A59H/N264H) above, with H246N, A247H counted along it
smiles,measurement,setting,value
[Cl-].[Cl-].[Zn+2] [ZnCl2],"Ca2+ response (delta ratio), WT",[1]; Fig.1e,0.00492
same,"Ca2+ response of individual cells (source data Suppl Fig1), WT","[1]; single-cell values #1-#20, WT",-0.0004923 and -0.006346 and -0.007608 and 0.01052 and -0.003585 and 0.007785 and 0.05315 and -0.005223 and -0.002885 and -0.002892 and -0.004792 and -0.003569 and 0.002877 and -0.04019 and -0.002708 and -0.06293 and -0.001754 and 0.176 and -0.006623 and -0.0003538
same,"Ca2+ response (delta ratio), P58H/N264H",[2]; Fig.1e,-0.00161
same,"Ca2+ response of individual cells (source data Suppl Fig1), P58H/N264H","[2]; single-cell values #1-#20, P58H/N264H",-0.01858 and -0.04214 and -0.01035 and -0.0081 and -0.006638 and 0.08488 and -0.007315 and -0.007238 and -0.01048 and -0.008431 and -0.001785 and 0.004277 and -0.0127 and -0.01994 and 0.003692 and 0.002931 and 0.009408 and 0.02135 and 0.0149 and -0.01995
same,"Ca2+ response (delta ratio), A59H/N264H",[3]; Fig.1e,0.00725
same,"Ca2+ response of individual cells (source data Suppl Fig1), A59H/N264H","[3]; single-cell values #1-#20, A59H/N264H",-0.01136 and 0.3757 and -0.01768 and -0.004631 and 0.0006077 and -0.008377 and -0.02044 and 0.005169 and -0.005323 and -0.01275 and -0.1876 and -0.01388 and 0.06164 and -0.009792 and -0.01495 and -0.03905 and -8.46E-05 and 0.03053 and 0.01748 and -0.0002154
same,"Ca2+ response (delta ratio), K61H/N264H",[4]; Fig.1e,0.01018
same,"Ca2+ response of individual cells (source data Suppl Fig1), K61H/N264H","[4]; single-cell values, K61H/N264H",0.0106 and 0.02204 and -0.0158 and -0.01138 and -0.0001308 and -0.01253 and -0.01344 and 0.3114 and -0.05129 and -0.02739 and -0.01424 and -0.005346 and 0.09999 and -0.01502
same,"Ca2+ response (delta ratio), P57H/N264H",[5]; Fig.1e,-0.002972
same,"Ca2+ response of individual cells (source data Suppl Fig1), P57H/N264H","[5]; single-cell values #1-#20, P57H/N264H",-0.0004538 and -0.005931 and -0.01735 and 0.02302 and 0.0025 and -0.02347 and -0.004954 and -0.01065 (2×) and 0.01802 and -0.01439 and 0.007646 and -0.01182 and 0.0001154 and -0.0004462 and -0.009846 and 0.01085 and 0.0122 and -0.009315 and -0.01449
same,"Ca2+ response (delta ratio), E60H/N264H",[6]; Fig.1e,-0.009416
same,"Ca2+ response of individual cells (source data Suppl Fig1), E60H/N264H","[6]; single-cell values #1-#20, E60H/N264H",-0.005892 and -0.03255 and -0.003646 and -0.02008 and -0.003615 and 0.05645 and 0.08788 and -0.01442 and -0.01449 and -0.04369 and -0.008223 and -0.02082 and -0.01922 and -0.01408 and -0.01929 and -0.02112 and -0.02071 and -0.02984 and -0.03302 and -0.007923
same,"Ca2+ response of individual cells (source data Suppl Fig1), Vec",[7],-0.02208 and -0.02062 and -0.01588 and -0.01264 and 0.0006769 and -0.01746 and -1.54E-05 and -0.004454 and -0.02104 and -0.008908 and -0.02662 and 0.006915 and 0.02477 and 0.001469 and -0.01177 and -0.03347 and -0.02945 and -0.01742 and 0.01306 and -0.02001
same,"Ca2+ response of individual cells (source data, sheet Suppl Fig1)",[8],-0.009 and -0.001631 and -0.01245 and -0.02388 and -0.01824 and -0.008531
same,"Ca2+ response (delta ratio), Vec",[9],-0.01075
same,"Ca2+ response of individual cells (source data Suppl Fig1), A59H/A265H",[10],0.02775 and 0.01526 and -0.01 and -0.0009538 and -0.04594 and 0.01742 and 0.01817 and 0.02166 and -0.009515 and -0.04688 and 0.04091 and -0.03576 and 0.04018 and -0.001815
same,"Ca2+ response of individual cells (source data, sheet Suppl Fig1)",[11],-0.0199 and 0.02527 and 0.05882 and -0.05132 and 0.1351 and 0.01718
same,"Ca2+ response (delta ratio), A59H/A265H",[12],0.009782
same,"Ca2+ response of individual cells (source data Suppl Fig1), A59H/G266H",[13],-0.005723 and -0.01571 and -0.007938 and -0.01115 and -0.002308 and 0.008723 and -0.07331 and -0.0327 and -0.004923 and 0.01074 and -0.0004923 and -0.02615 and -0.03942 and 0.04141
same,"Ca2+ response of individual cells (source data, sheet Suppl Fig1)",[14],-0.02524 and -0.001377 and -0.01992 and 0.004231 and -0.03185 and -0.008431
same,"Ca2+ response (delta ratio), A59H/G266H",[15],-0.01208
